Source: article PMC12295306, “Gut Microbial Postbiotics as Potential Therapeutics for Lymphoma: Proteomics Insights of the Synergistic Effects of Nisin and Urolithin B Against Human Lymphoma Cells” (International Journal of Molecular Sciences, 2025)
One block for each compound: values may come before it.

Legend:
HKB-11 lymphoma cells [1] = experiment: Flow cytometry apoptosis profile, Annexin V-CF Blue / 7-AAD; assay type: cell-based, human; settings: HKB-11, 4 µM, 24 h; p ≤ 0.0001
Description: The HKB-11 cells were cultured in T75 cell culture flasks with an initial density of 1 × 10^6 cells per 10 mL at 37 °C in the presence of 5% CO2 for 24 h. The following day, the cell culture media was removed from each flask and replaced with fresh FBS-containing media. […] An FBS-containing medium was used as the untreated control. The flasks were then incubated at 37 °C with 5% CO2 for 24 h. Then, the cell culture media from each flask were collected. Subsequently, trypsin (0.25% w/v) was applied to the flasks for 4 min at 37 °C. The trypsin reaction was neutralised with an equal volume of 10% FBS serum-containing media, and the cells were combined with the previously collected media. The cell pellets were obtained by centrifuging at 500× g for 5 min at room temperature (RT). This procedure was repeated by suspending the cell pellets in 1 mL of PBS each time. The collected cell pellets from each treatment were immediately suspended in 500 μL of 1× binding buffer and gently mixed by pipetting. Annexin V-CF Blue (5 μL) and 7-AAD (5 μL) staining solutions were added to 100 μL of the cell suspension. The stained cells were incubated for 15 min in the dark at RT, after which 400 μL of a 1× assay buffer was added to each cell suspension. Subsequently, the cells were examined using a flow cytometer (Novocyte 3000, ACEA Biosciences Inc., San Diego, CA, USA), and data analysis and processing were performed using NovoExpress software (version 1.5.0, ACEA Biosciences Inc., CA, USA). In the initial step, the cells were gated on forward and side scatter modes to exclude cell aggregates and debris near the origin. The cells were then gated on dot plots, where Annexin V-CF in Pacific Blue was plotted against 7-AAD fluorescence in PerCP. Quadrants were positioned relative to the untreated control, indicating live cells ([…] and −7-AAD) appearing in the lower-left quadrant, early apoptotic cells (+Annexin V and −7-AAD) in the lower-right quadrant, late apoptotic cells (+Annexin V and +7-AAD) in the upper-right quadrant, and necrotic cells (−Annexin V and +7-AAD) in the upper-left quadrant. For statistical analyses and visualisation, the percentage data of cells in each quadrant after different treatments (n = 3) were exported to GraphPad Prism software (version 9.0, San Diego, CA, USA).

HKB-11 lymphoma cells [2] = experiment: ROS production, H2DCFDA assay; assay type: cell-based, human; settings: 4 h
Description: Briefly, HKB-11 lymphoma cells (2.5 × 10^5 cells/mL) were cultured in a 96-well plate, allowed to adhere overnight, and treated with 20 μM H2DCFDA for 45 min to assess ROS levels. The dye solution was removed, and cells were washed with 1× buffer. Next, the cells were treated with N (8000 μM), N (4000 μM), UB (500 μM), UB (250 μM), N/UB (3500 μM), N/UB (1750 μM), N/UB (5750 μM), N/UB (2875 μM), Dox (4 μM), and tert-butyl hydroperoxide (TBHP) (150 μM) and then incubated at 37 °C for 4 h. Finally, the plate was immediately read at Ex/Em = 485/535 nm using a microplate spectrophotometer (BMG CLARIOstar, VIC, Australia). The fold change in ROS production was determined relative to the untreated control (cells treated with the supplement buffer according to the manufacturer’s protocol).

[3] = test system: HKB-11 human lymphoma cells; experiment: Alamar Blue antiproliferative assay, HKB-11; assay type: cell-based; settings: HKB-11, 72 h, single postbiotics, GraphPad Prism nonlinear regression; for IC50: read-out: IC50 (concentration required to inhibit 50% of cell growth)
Description: The cell viability of the HKB-11, Hs 313.T, and HS-5 cells after treatment with different concentrations of the seven different postbiotics, including SCFA salts (magnesium acetate, sodium propionate, and sodium butyrate), UA and UB, purine nucleoside (inosine), and bacteriocin (N), was determined using the Alamar Blue assay as per the method described earlier. Briefly, 100 μL of cells was cultured in 96-well plates at a 3 × 10^5 cells/mL seeding density. After 24 h, the cells were treated with 16,000 µM of each postbiotic except for the urolithins, which were applied at 500 µM using a 1:2 serial dilution across a 10-point dose–response curve, followed by a 72 h incubation. A positive control using doxorubicin was prepared at a concentration of 4 μM, and an untreated control with 0.1% DMSO was added to every plate. At the end of the incubation period, the culture media were removed, and 100 μL of a 0.1 mg/mL Alamar Blue solution (resazurin, prepared as a stock solution at 1 mg/mL in freshly made PBS, followed by a 1:10 dilution with serum-free media) was added to each well. The fluorescence levels were assessed using a microplate spectrophotometer (BMG CLARIOstar, Mornington, VIC, Australia) with an excitation wavelength of 555 nm and emission measurement at 595 nm. The compounds were tested in triplicate, with the untreated control taken as 100% cell viability.
Data were collected and managed using MS Office Excel and GraphPad Prism for statistical analyses and visualisation. Data collection and analyses were carried out in triplicate, and the outcomes were presented as the mean ± standard deviation. Statistical significance between the mean values was determined at p ≤ 0.05 employing a two-way ANOVA. Tukey and Dunnett’s tests were utilised within GraphPad Prism software to perform nonlinear regression and multiple comparisons. Furthermore, GraphPad Prism software computed the IC50 value (representing the drug concentration required to achieve a 50% cell growth inhibition). The experimental groups in the proteomics study were compared statistically using unpaired t-tests, assuming equal variances. Candidate proteins were selected based on an absolute log2 fold change ≥ 0.58 and a Q-value ≤ 0.05. Enrichment analysis was subsequently conducted using Ingenuity Pathway Analysis (IPA), applying a significance threshold of adjusted Q ≤ 0.05 to identify functionally enriched pathways, focusing on those with an absolute z-score of ≥1.

IC50 (concentration required to inhibit 50% of cell growth) [3]: could not be calculated
Structure (SMILES): O=c1[nH]cnc2c1ncn2[C@@H]1O[C@H](CO)[C@@H](O)[C@H]1O [Inosine, inosine]

IC50 (concentration required to inhibit 50% of cell growth) [3]: could not be calculated
Structure (SMILES): CC(=O)[O-].CC(=O)[O-].[Mg+2] [Magnesium Acetate, magnesium acetate]

The next lines start with the compound.

Structure (SMILES): COc1cccc2c1C(=O)c1c(O)c3c(c(O)c1C2=O)C[C@@](O)(C(=O)CO)C[C@@H]3O[C@H]1C[C@H](N)[C@H](O)[C@H](C)O1 [Dox, doxorubicin, reference compound]
Apoptosis induction (positive control) (HKB-11 lymphoma cells [1]): significantly induced apoptosis
Necrotic cell death compared to the untreated control and other treatment groups (HKB-11 lymphoma cells [1]): markedly higher proportion of necrotic cell death
ROS production (positive control) (HKB-11 lymphoma cells [2]; HKB-11, 4 μM): induced high ROS production

Structure (SMILES): CCCC(=O)[O-].[Na+] [Sodium Butyrate, sodium butyrate]
IC50 [3]: 2020 µM

Structure (SMILES): CCC(=O)[O-].[Na+] [Sodium Propionate, sodium propionate]
IC50 [3]: 14600 µM

Structure (SMILES): CC(C)(C)OO [TBHP, tert-butyl hydroperoxide, reference compound]
ROS production (positive control) (HKB-11 lymphoma cells [2]; HKB-11, 150 μM): induced high ROS production

Structure (SMILES): O=c1oc2cc(O)ccc2c2ccc(O)cc12 [UA, Urolithin A]
IC50 [3]: 384 µM
